SMILES strings stand for the structures.

CK2A1 (CK2α/β), sequence (P68400 whole entry, species assumed): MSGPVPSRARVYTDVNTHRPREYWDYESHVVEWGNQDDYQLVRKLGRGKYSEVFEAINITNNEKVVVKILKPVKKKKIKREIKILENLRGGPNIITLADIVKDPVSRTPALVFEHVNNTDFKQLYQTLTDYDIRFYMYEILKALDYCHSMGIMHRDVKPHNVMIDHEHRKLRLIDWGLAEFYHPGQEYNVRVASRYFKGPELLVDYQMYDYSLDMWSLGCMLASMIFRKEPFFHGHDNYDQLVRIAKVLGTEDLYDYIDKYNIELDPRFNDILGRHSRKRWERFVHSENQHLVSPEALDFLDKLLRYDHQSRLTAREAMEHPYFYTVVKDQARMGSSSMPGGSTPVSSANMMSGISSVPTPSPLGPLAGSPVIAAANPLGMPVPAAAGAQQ
CK2A1 (CK2α/β), sequence (P67870 whole entry partner, species assumed): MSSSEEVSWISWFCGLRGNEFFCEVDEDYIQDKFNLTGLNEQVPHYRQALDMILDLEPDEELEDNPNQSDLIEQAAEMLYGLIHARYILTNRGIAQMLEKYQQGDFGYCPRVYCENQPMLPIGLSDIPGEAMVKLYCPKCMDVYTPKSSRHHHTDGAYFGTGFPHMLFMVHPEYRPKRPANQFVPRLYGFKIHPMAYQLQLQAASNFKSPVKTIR

This experiment addresses CK2A1 (CK2α/β) (Homo sapiens, UniProt P68400). The experiment in a line: CK2 kinase assay, CK2A1 (CK2α/β). The experiment is classed as biochemical. Particulars: Table A; read-out: CK2A1 (CK2α/β) (IC50).
Regarding `C[C@H](N)C(=O)N1CCC(c2cc(C#N)cc(Nc3nc(NC4CC4)c4ncc(C#N)n4n3)c2Cl)CC1` [Example 240, 2-((3-(1-L-alanyl-4-piperidinyl)-2-chloro-5-cyanophenyl)amino)-4-(cyclopropylamino)imidazo[2,1-f][1,2,4]triazine-7-carbonitrile], the IC50 came to 0.47 nM.

Take `C[C@@H](N)C(=O)N1CCC(c2cc(C#N)cc(Nc3nc(NC4CC4)c4ncc(C#N)n4n3)c2Cl)CC1` [Example 241, 2-((3-(1-D-alanyl-4-piperidinyl)-2-chloro-5-cyanophenyl)amino)-4-(cyclopropylamino)imidazo[2,1-f][1,2,4]triazine-7-carbonitrile]: the IC50 was 0.59 nM.

Take `N#Cc1cnc2c(NC3CC3)nc(Nc3cc(C(F)F)cc(N4CCN(C5COC5)CC4)c3Cl)nn12` [Example 242, 2-((2-Chloro-5-(difluoromethyl)-3-(4-(oxetan-3-yl)piperazin-1-yl)phenyl)amino)-4-(cyclopropylamino)imidazo[2,1-f][1,2,4]triazine-7-carbonitrile]: the IC50 amounted to 1.3 nM.

In the case of `COC(=O)N[C@@H]1CCN(c2cc(C(F)F)cc(Nc3nc(NC4CC4)c4ncc(C#N)n4n3)c2Cl)C[C@H]1O` [Example 243, methyl (3R,4R)-1-(2-chloro-3-(7-cyano-4-(cyclopropylamino)imidazo[1,2-f][1,2,4]triazin-2-ylamino)-5-(difluoromethyl)phenyl)-3-hydroxypiperidin-4-ylcarbamate], the IC50 turned out to be 2.08 nM.

Regarding `CC1(N2CCOCC2)CCN(c2cc(C(F)F)cc(Nc3nc(NC4CC4)c4ncc(C#N)n4n3)c2Cl)CC1` [Example 244, 2-((2-chloro-5-(difluoromethyl)-3-(4-methyl-4-(4-morpholinyl)-1-piperidinyl)phenyl)amino)-4-(cyclopropylamino)imidazo[2,1-f][1,2,4]triazine-7-carbonitrile], the IC50 came out at 0.97 nM.

Regarding `CC1(N)CCN(c2cc(C(F)F)cc(Nc3nc(NC4CC4)c4ncc(C#N)n4n3)c2Cl)CC1` [Example 245, 2-((3-(4-amino-4-methyl-1-piperidinyl)-2-chloro-5-(difluoromethyl)phenyl)amino)-4-(cyclopropylamino)imidazo[2,1-f][1,2,4]triazine-7-carbonitrile], the IC50 turned out to be 0.51 nM.

Regarding `N#Cc1cnc2c(NC3CC3)nc(Nc3cc(C(F)F)cc(N4CCNCC4)c3Cl)nn12` [Example 246, 2-((2-chloro-5-(difluoromethyl)-3-(1-piperazinyl)phenyl)amino)-4-(cyclopropylamino)imidazo[2,1-f][1,2,4]triazine-7-carbonitrile], the IC50 is 0.96 nM.

Take `N#Cc1cnc2c(NC3CC3)nc(Nc3cc(C(F)F)cc(N4CCN(C5CCOCC5)CC4)c3Cl)nn12` [Example 247, 2-((2-chloro-5-(difluoromethyl)-3-(4-(tetrahydro-2H-pyran-4-yl)-1-piperazinyl)phenyl)amino)-4-(cyclopropylamino)imidazo[2,1-f][1,2,4]triazine-7-carbonitrile]: the IC50 is 1.74 nM.

With `N#Cc1cnc2c(NC3CC3)nc(Nc3cc(C(F)F)cc(N4CCN(CC(F)F)CC4)c3Cl)nn12` [Example 248, 2-((2-chloro-3-(4-(2,2-difluoroethyl)-1-piperazinyl)-5-(difluoromethyl)phenyl)amino)-4-(cyclopropylamino)imidazo[2,1-f][1,2,4]triazine-7-carbonitrile], the IC50 is 3.27 nM.

With `N#Cc1cnc2c(NC3CC3)nc(Nc3cc(C(F)F)cc(NCC(O)CO)c3Cl)nn12` (centres unmarked) [Example 254, 2-((2-chloro-5-(difluoromethyl)-3-((2,3-dihydroxypropyl)amino)phenyl)amino)-4-(cyclopropylamino)imidazo[2,1-f][1,2,4]triazine-7-carbonitrile], the IC50 was 0.68 nM.

For the molecule `N#Cc1cnc2c(NC3CC3)nc(Nc3cc(C(F)F)cc(N4CCC(O)CC4)c3Cl)nn12` [Example 255, 2-((2-chloro-5-(difluoromethyl)-3-(4-hydroxy-1-piperidinyl)phenyl)amino)-4-(cyclopropylamino)imidazo[2,1-f][1,2,4]triazine-7-carbonitrile], the IC50 came out at 0.53 nM.

For `N#Cc1cnc2c(NC3CC3)nc(Nc3cc(C(F)F)cc(N4CCC(NC5COC5)CC4)c3Cl)nn12` [Example 256, 2-((2-chloro-5-(difluoromethyl)-3-(4-(3-oxetanylamino)-1-piperidinyl)phenyl)amino)-4-(cyclopropylamino)imidazo[2,1-f][1,2,4]triazine-7-carbonitrile], the IC50 stood at 0.75 nM.

Turning to `CC1(O)CN(C2CCN(c3cc(C(F)F)cc(Nc4nc(NC5CC5)c5ncc(C#N)n5n4)c3Cl)CC2)C1` [Example 257, 2-((2-chloro-5-(difluoromethyl)-3-(4-(3-hydroxy-3-methyl-1-azetidinyl)-1-piperidinyl)phenyl)amino)-4-(cyclopropylamino)imidazo[2,1-f][1,2,4]triazine-7-carbonitrile], the IC50 stood at 0.97 nM.

Turning to `N#Cc1cnc2c(NC3CC3)nc(Nc3cc(C(F)F)cc(N4CCC(N5CC(F)C5)CC4)c3Cl)nn12` [Example 258, 2-((2-chloro-5-(difluoromethyl)-3-(4-(3-fluoro-1-azetidinyl)-1-piperidinyl)phenyl)amino)-4-(cyclopropylamino)imidazo[2,1-f][1,2,4]triazine-7-carbonitrile], the IC50 is 1.93 nM.

As to `CC(C)(O)C1CCN(C2CN(c3cc(C(F)F)cc(Nc4nc(NC5CC5)c5ncc(C#N)n5n4)c3Cl)C2)CC1` [Example 259, 2-((2-chloro-5-(difluoromethyl)-3-(3-(4-(1-hydroxy-1-methylethyl)-1-piperidinyl)-1-azetidinyl)phenyl)amino)-4-(cyclopropylamino)imidazo[2,1-f][1,2,4]triazine-7-carbonitrile], the IC50 amounted to 1.29 nM.

Regarding `COC1CCN(C2CN(c3cc(C(F)F)cc(Nc4nc(NC5CC5)c5ncc(C#N)n5n4)c3Cl)C2)CC1` [Example 260, 2-((2-chloro-5-(difluoromethyl)-3-(3-(4-methoxy-1-piperidinyl)-1-azetidinyl)phenyl)amino)-4-(cyclopropylamino)imidazo[2,1-f][1,2,4]triazine-7-carbonitrile], the IC50 worked out at 2.12 nM.

Consider `CC1(CN2CCN(c3cc(C(F)F)cc(Nc4nc(NC5CC5)c5ncc(C#N)n5n4)c3Cl)CC2)COC1` [Example 264, 2-((2-chloro-5-(difluoromethyl)-3-(4-((3-methyl-3-oxetanyl)methyl)-1-piperazinyl)phenyl)amino)-4-(cyclopropylamino)imidazo[2,1-f][1,2,4]triazine-7-carbonitrile], for which the IC50 is 2.97 nM.

On to `CC(=O)N1CC(N2CCN(c3cc(C(F)F)cc(Nc4nc(NC5CC5)c5ncc(C#N)n5n4)c3Cl)CC2)C1` [Example 266, 2-((3-(4-(1-acetyl-3-azetidinyl)-1-piperazinyl)-2-chloro-5-(difluoromethyl)phenyl)amino)-4-(cyclopropylamino)imidazo[2,1-f][1,2,4]triazine-7-carbonitrile], for which the IC50 is 2.97 nM.

As for `N#Cc1cnc2c(NC3CC3)nc(Nc3cc(C(F)F)cc(N4CCN(C5(CCO)COC5)CC4)c3Cl)nn12` [Example 270, 2-((2-chloro-5-(difluoromethyl)-3-(4-(3-(2-hydroxyethyl)-3-oxetanyl)-1-piperazinyl)phenyl)amino)-4-(cyclopropylamino)imidazo[2,1-f][1,2,4]triazine-7-carbonitrile], the IC50 was determined as 0.82 nM.

With `CC(O)C1(N2CCN(c3cc(C(F)F)cc(Nc4nc(NC5CC5)c5ncc(C#N)n5n4)c3Cl)CC2)COC1` (centres unmarked) [Example 271, 2-((2-chloro-5-(difluoromethyl)-3-(4-(3-(1-hydroxyethyl)-3-oxetanyl)-1-piperazinyl)phenyl)amino)-4-(cyclopropylamino)imidazo[2,1-f][1,2,4]triazine-7-carbonitrile], the IC50 came out at 1.22 nM.

Take `N#Cc1cnc2c(NC3CC3)nc(Nc3cc(C(F)F)cc(N4CCN(C5CS(=O)(=O)C5)CC4)c3Cl)nn12` [Example 272, 2-((2-chloro-5-(difluoromethyl)-3-(4-(1,1-dioxidothietan-3-yl)piperazin-1-yl)phenyl)amino)-4-(cyclopropylamino)imidazo[2,1-f][1,2,4]triazine-7-carbonitrile]: the IC50 was 0.58 nM.

For `CC1(C(=O)N2CCN(c3cc(C(F)F)cc(Nc4nc(NC5CC5)c5ncc(C#N)n5n4)c3Cl)CC2)COC1` [Example 273, 2-((2-chloro-5-(difluoromethyl)-3-(4-((3-methyl-3-oxetanyl)carbonyl)-1-piperazinyl)phenyl)amino)-4-(cyclopropylamino)imidazo[2,1-f][1,2,4]triazine-7-carbonitrile], the IC50 was 2.11 nM.

In the case of `N#Cc1cnc2c(NC3CC3)nc(Nc3cc(C(F)F)cc(N4CCOCC4)c3Cl)nn12` [Example 275, 2-((2-chloro-5-(difluoromethyl)-3-(4-morpholinyl)phenyl)amino)-4-(cyclopropylamino)imidazo[2,1-f][1,2,4]triazine-7-carbonitrile], the IC50 is 3.36 nM.

Take `N#Cc1cnc2c(NC3CC3)nc(Nc3cc(C(F)F)cc(N4CCC(C(CO)CO)CC4)c3Cl)nn12` [Example 277, 2-((2-chloro-5-(difluoromethyl)-3-(4-(2-hydroxy-1-(hydroxymethyl)ethyl)-1-piperidinyl)phenyl)amino)-4-(cyclopropylamino)imidazo[2,1-f][1,2,4]triazine-7-carbonitrile]: the IC50 was 2.56 nM.

With `CN1CCN(C2CN(c3cc(C(F)F)cc(Nc4nc(NC5CC5)c5ncc(C#N)n5n4)c3Cl)C2)CC1` [Example 278, 2-((2-chloro-5-(difluoromethyl)-3-(3-(4-methyl-1-piperazinyl)-1-azetidinyl)phenyl)amino)-4-(cyclopropylamino)imidazo[2,1-f][1,2,4]triazine-7-carbonitrile], the IC50 stood at 0.86 nM.

`N#Cc1cnc2c(NC3CC3)nc(Nc3cc(C(F)F)cc(N4CC(N5CCOCC5)C4)c3Cl)nn12` [Example 279, 2-((2-chloro-5-(difluoromethyl)-3-(3-(4-morpholinyl)-1-azetidinyl)phenyl)amino)-4-(cyclopropylamino)imidazo[2,1-f][1,2,4]triazine-7-carbonitrile]: the IC50 was 0.76 nM.

Source of the values: patent US9273057B2 (Bristol-Myers Squibb Company, priority 2012, dated 2016).
